Structures can show the parent of a compound that is named as a salt.
The molecules below were run against T1, recombinant sEH (Homo sapiens, UniProt P34913) (assay: biochemical screening assay for inhibition of soluble epoxide hydrolase (fluorometric, Phome substrate)).
T1 construct: made in house; host or cells: Sf9 insect cells
T1 sequence (P34913 1-555): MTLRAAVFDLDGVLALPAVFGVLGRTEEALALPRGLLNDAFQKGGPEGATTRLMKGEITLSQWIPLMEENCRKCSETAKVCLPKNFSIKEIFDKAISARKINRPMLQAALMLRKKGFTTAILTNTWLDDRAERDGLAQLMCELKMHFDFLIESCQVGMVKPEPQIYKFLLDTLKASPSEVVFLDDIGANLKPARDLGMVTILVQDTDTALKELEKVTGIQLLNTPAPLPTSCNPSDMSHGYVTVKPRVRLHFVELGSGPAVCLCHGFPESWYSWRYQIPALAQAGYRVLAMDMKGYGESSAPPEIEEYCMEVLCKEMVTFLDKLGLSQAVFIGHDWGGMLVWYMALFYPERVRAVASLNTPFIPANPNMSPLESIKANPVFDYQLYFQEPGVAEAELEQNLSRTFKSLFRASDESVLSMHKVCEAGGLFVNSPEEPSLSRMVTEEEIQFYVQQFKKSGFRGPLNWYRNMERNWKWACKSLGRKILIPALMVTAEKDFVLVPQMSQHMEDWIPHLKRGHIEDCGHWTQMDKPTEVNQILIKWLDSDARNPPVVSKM
Procedure, shortened: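 Reading fluorescence before substrate addition and after completion corrected for autofluorescence. Reaction: 5 μM Phome, 2 nM recombinant human sEH (Sf9-expressed), compound 0.0001–10 μM, 25 mM Hepes with 0.01% albumin, 15 min pre-incubation then 60 min at 30 °C; IC50 derived from % inhibition.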

Point of comparison: `O=C(NC1CCCCC1)N[C@H]1CO[C@H]2[C@@H]1OC[C@@H]2Oc1cccc(C(F)(F)F)c1` [Example 125, 1-Cyclohexyl-3-[(3S,3aR,6S,6aS)-6-(3-trifluoromethyl-phenoxy)-hexa-hydro-furo[3,2-b]furan-3-yl]-urea], IC50 0.003 µM. Against it:
- O=C(NCc1ccc(F)cc1)NC1COC2C(CCc3ccsc3)COC12 [Example 364, 1-(4-Fluoro-benzyl)-3-[(3S,3aR,6R)-6-((S)-2-thiophen-3-yl-ethyl)-hexa-hydro-furo[3,2-b]furan-3-yl]-urea] — 9.7-fold higher, 0.029 µM
- Cc1ncccc1OC1COC2C(NC(=O)NC3C4(C)CCC(C4)C3(C)C)COC12 [Example 195, 1-[(2R,3aS,5S,6S)-6-(2-Methyl-pyridin-3-yloxy)-hexahydro-furo[3,2-b]furan-3-yl]-3-((1S,4R)-1,3,3-tri-methyl-bicyclo[2.2.1]hept-2-yl)-urea] — 19-fold higher, 0.056 µM
- Cc1ncccc1O[C@H]1CO[C@H]2[C@@H]1OC[C@@H]2NC(=O)NCc1cccc2c1OC(C)(C)C2 [Example 224, 1-(2,2-Dimethyl-2,3-dihydro-benzofuran-7-ylmethyl)-3-[(3S,3aR,6S,6aS)-6-(2-methyl-pyridin-3-yloxy)-hexahydro-furo[3,2-b]furan-3-yl]-urea] — 13-fold higher, 0.039 µM
- O=C(NC1CCCCC1)N[C@H]1CO[C@H]2[C@@H]1OC[C@@H]2Oc1cccc(N2CCOCC2)c1 [Example 100, 1-Cyclohexyl-3-[(3S,3aR,6S,6aS)-6-(3-morpholin-4-yl-phenoxy)-hexa-hydro-furo[3,2-b]furan-3-yl]-urea] — 1.5-fold lower, 0.002 µM
- Cc1ccc(O[C@H]2CO[C@H]3[C@@H]2OC[C@@H]3NC(=O)NC2CCCCC2)c(C)n1 [Example 34, 1-Cyclohexyl-3-[(3S,3aR,6S,6aS)-6-(2,6-dimethyl-pyridin-3-yloxy)-hexahydro-furo[3,2-b]furan-3-yl]-urea] — 1.5-fold lower, 0.002 µM
- O=C(NC1CCCCC1)N[C@H]1CO[C@H]2[C@@H]1OC[C@@H]2C#Cc1ccccn1 [Example 300, 1-Cyclohexyl-3-((3S,3aR,6S,-6aR)-6-pyridin-2-ylethynyl-hexahydro-furo[3,2-b]furan-3-yl)-urea; trifluoroacetate] — 6.3-fold higher, 0.019 µM
- CCN1CC(CNC(=O)N[C@H]2CO[C@H]3[C@@H]2OC[C@@H]3Oc2cccnc2C)CC1=O (stereo partly drawn) [Example 254, 1-(1-Ethyl-5-oxo-pyrrolidin-3-ylmethyl)-3-[(3S,3aR,6S,6aS)-6-(2-methyl-pyridin-3-yloxy)-hexahydro-furo[3,2-b]furan-3-yl]-urea] — 290-fold higher, 0.882 µM
- O=C(Nc1ccc(OCc2ccccc2)cc1)NC1COC2C(C#Cc3ccccc3)COC12 [Example 287, 1-(4-Benzyloxy-phenyl)-3-[(3S,3aR,6R)-6-((S)-phenylethynyl)-hexahydro-furo[3,2-b]furan-3-yl]-urea] — 27-fold higher, 0.082 µM
- CC(=O)NCCS[C@H]1CO[C@H]2[C@@H]1OC[C@@H]2NC(=O)NC1CCCCC1 [Example 16, N-{2-[(3S,3aS,6S,6aR)-6-(3-Cyclohexyl-ureido)-hexahydro-furo[3,2-b]furan-3-ylsulfanyl]-ethyl}-acetamide] — 2.7-fold higher, 0.008 µM
- O=C(Nc1ccccc1)N[C@H]1CO[C@@H]2[C@@H]1OC[C@H]2C#Cc1ccccc1 [Example 286, 1-Phenyl-3-[(3S,3aR,6R)-6-((S)-phenylethynyl)-hexa-hydro-furo[3,2-b]furan-3-yl]-urea] — 76-fold higher, 0.227 µM
- O=C(Nc1ccc(OC(F)(F)F)cc1)N[C@H]1CO[C@@H]2[C@@H](CCc3ccsc3)CO[C@@H]21 [Example 374, 1-[(3S,3aR,6S,6aR)-6-(2-Thiophen-3-yl-ethyl)-hexahydro-furo[3,2-b]furan-3-yl]-3-(4-trifluoromethoxy-phenyl)-urea] — 78-fold higher, 0.235 µM
- O=C(NC1CCCCC1)N[C@H]1CO[C@H]2[C@@H]1OC[C@@H]2Sc1ccc(Cl)cn1 [Example 63, 1-[(3S,3aR,6S,6aS)-6-(5-Chloro-pyridin-2-ylsulfanyl)-hexahydro-furo[3,2-b]furan-3-yl]-3-cyclohexyl-urea] — 3-fold lower, 0.001 µM
- Cc1ncccc1O[C@H]1CO[C@H]2[C@@H]1OC[C@@H]2NC(=O)NC1CCOCC1 [Example 216, 1-[(3S,3aR,6S,6aS)-6-(2-Methyl-pyridin-3-yloxy)-hexahydro-furo[3,2-b]furan-3-yl]-3-(tetrahydro-pyran-4-yl)-urea] — 42-fold higher, 0.125 µM
- O=C(NC1CCCCC1)N[C@H]1CO[C@@H]2[C@@H](CCc3ccccn3)CO[C@@H]21 [Example 350, 1-Cyclohexyl-3-[(3S,3aR,6S,6aR)-6-(2-pyridin-2-yl-ethyl)-hexahydro-furo[3,2-b]furan-3-yl]-urea; trifluoroacetate] — 7.3-fold higher, 0.022 µM
- C[C@@H](NC(=O)N[C@H]1CO[C@H]2[C@@H]1OC[C@@H]2Oc1ccc(F)cc1)C1CCCCC1 [Example 165, 1-((R)-1-Cyclohexyl-ethyl)-3-[(3S,3aR,6S,6aS)-6-(4-fluoro-phenoxy)-hexahydro-furo[3,2-b]furan-3-yl]-urea] — 7-fold higher, 0.021 µM
- O=C(NCCc1ccccc1)N[C@H]1CO[C@H]2[C@@H]1OC[C@@H]2/C=C\c1ccsc1 [Example 344, 1-Phenethyl-3-[(3S,3aR,6S,6aR)-6-((Z)-2-thiophen-3-yl-vinyl)-hexa-hydro-furo[3,2-b]furan-3-yl]-urea] — 14-fold higher, 0.042 µM
- O=C(NC1CCCCC1)N[C@H]1CO[C@H]2[C@@H]1OC[C@@H]2Oc1ccc(N2CCCC2)nc1 [Example 70, 1-cyclohexyl-3-[(3S,3aR,6S,6aS)-6-(6-pyrrolidin-1-yl-pyridin-3-yloxy)-hexahydro-furo[3,2-b]furan-3-yl]-urea] — 3-fold lower, 0.001 µM
- Cc1cnc(S[C@H]2CO[C@H]3[C@@H]2OC[C@@H]3NC(=O)NC2CCCCC2)nc1 [Example 50, 1-Cyclohexyl-3-[(3S,3aR,6S,6aS)-6-(5-methyl-pyrimidin-2-ylsulfanyl)-hexahydro-furo[3,2-b]furan-3-yl]-urea; hydrochloride] — 3.3-fold higher, 0.01 µM
- Cc1ncccc1O[C@H]1CO[C@H]2[C@@H]1OC[C@@H]2NC(=O)NC1CCCN(C(=O)OC(C)(C)C)C1 (stereo partly drawn) [Example 81, 3-{3-[(3S,3aR,6S,6aS)-6-(2-methyl-pyridin-3-yloxy)-hexahydro-furo[3,2-b]furan-3-yl]-ureido}-piperidine-1-carboxylic acid tert-butyl ester] — 5.3-fold higher, 0.016 µM
- O=C(NC1CCCCC1)NC1COC2C(C#Cc3ccccc3)COC12 [Example 282, 1-Cyclohexyl-3-((3S,3aR,6S,-6aR)-6-phenylethynyl-hexa-hydro-furo[3,2-b]furan-3-yl)-urea] — 4-fold higher, 0.012 µM
- O=C(NC1CCCCC1)N[C@H]1CO[C@H]2[C@@H]1OC[C@@H]2Oc1cccc(-n2cnnc2)c1 [Example 30, 1-Cyclohexyl-3-[(3S,3aR,6S,6aS)-6-(3-[1,2,4]triazol-4-yl-phenoxy)-hexahydro-furo[3,2-b]furan-3-yl]-urea] — 1.5-fold lower, 0.002 µM
- Cc1ncccc1O[C@H]1CO[C@H]2[C@@H]1OC[C@@H]2NC(=O)NC1CC2CC1C1CCCC21 (stereo partly drawn) [Example 262, 1-[(3S,3aR,6S,6aS)-6-(2-Methyl-pyridin-3-yloxy)-hexahydro-furo[3,2-b]furan-3-yl]-3-(octahydro-4,7-methano-inden-5-yl)-urea] — 1.5-fold lower, 0.002 µM
- Cc1ccc(S(=O)(=O)O[C@@H]2CO[C@H]3[C@@H]2OC[C@@H]3NC(=O)NC2CCCCC2)cc1 [Example 2, toluene-4-sulfonic acid (3R,3aS,6S,6aR)-6-(3-cyclohexyl-ureido)-hexahydro-furo[3,2-b]furan-3-yl ester] — 6.3-fold higher, 0.019 µM
- Cc1ncccc1O[C@H]1CO[C@H]2[C@@H]1OC[C@@H]2NC(=O)NC[C@H]1C[C@H]2C[C@@H]([C@@H]1C)C2(C)C [Example 178, 1-[(3S,3aR,6S,6aS)-6-(2-Methyl-pyridin-3-yloxy)-hexahydro-furo[3,2-b]furan-3-yl]-3-((1S,2S,3S,5R)-2,6,6-trimethyl-bicyclo[3.1.1]hept-3-ylmethyl)-urea] — 1.7-fold higher, 0.005 µM
- CC(C)(O)c1cncc(O[C@H]2CO[C@H]3[C@@H]2OC[C@@H]3NC(=O)NC2CCCCC2)c1 [Example 68, 1-cyclohexyl-3-{(3S,3aR,6S,6aS)-6-[5-(1-hydroxy-1-methyl-ethyl)-pyridin-3-yloxy]-hexahydro-furo[3,2-b]furan-3-yl}-urea; hydrochloride] — 1.5-fold lower, 0.002 µM
- Cc1ncccc1O[C@H]1CO[C@H]2[C@@H]1OC[C@@H]2NC(=O)NCc1ccccc1OC(F)(F)F [Example 179, 1-[(3S,3aR,6S,6aS)-6-(2-Methyl-pyridin-3-yloxy)-hexahydro-furo[3,2-b]furan-3-yl]-3-(2-trifluoromethoxy-benzyl)-urea] — lower, < 0.001 µM
- Cc1cccc(CNC(=O)N[C@H]2CO[C@H]3[C@@H]2OC[C@@H]3/C=C\c2ccsc2)c1 [Example 339, 1-(3-Methyl-benzyl)-3-[(3S,3aR,6S,6aR)-6-((Z)-2-thiophen-3-yl-vinyl)-hexahydro-furo[3,2-b]furan-3-yl]-urea] — 140-fold higher, 0.418 µM
- O=C(NC1CCCCC1)N[C@H]1CO[C@H]2[C@@H]1OC[C@@H]2Sc1ncc[nH]1 [Example 48, 1-Cyclohexyl-3-[(3S,3aR,6S,6aS)-6-(1H-imidazol-2-ylsulfanyl)-hexa-hydro-furo[3,2-b]furan-3-yl]-urea] — 3.7-fold higher, 0.011 µM
- Cc1ncccc1O[C@H]1CO[C@H]2[C@@H]1OC[C@@H]2NC(=O)NC1CCC(c2ccccc2)CC1 (stereo partly drawn) [Example 264, 1-[(3S,3aR,6S,6aS)-6-(2-Methyl-pyridin-3-yloxy)-hexahydro-furo[3,2-b]furan-3-yl]-3-(4-phenyl-cyclohexyl)-urea] — 2-fold higher, 0.006 µM
